Molecules are shown by their SMILES. “Also recorded” adds a separate entry of the source.

Experimental findings from EP4790048A1, “S1PR4 REGULATOR COMPOUND FOR AUTOIMMUNE DISEASE TREATMENT AND APPLICATION THEREOF” (Shengyuan Zetong (Shanghai) Pharmaceutical Co., Ltd, priority 2023, dated 2025) are described below.

Experiment [1] concerns the target T1, hS1P1 (Homo sapiens, UniProt P21453).
T1 construct: expressed in transfected cells; host or cells: CHO
The experiment in a line: Tango β-arrestin recruitment luciferase assay, Tango-hS1P1-CHO. Conditions: β-arrestin recruitment; 20 h drug treatment; top 45 µM, 9 serial 5-fold dilutions; positive control 1 µM BAF-312; read-out: Tango-hS1P1-CHO EC50. The experiment is classed as cell-based. From the text:
(§1) The Tango assay detects ligand-dependent GPCR activity through the interaction between β-arrestin and GPCRs. […] The NTEV fragment and the tetracycline transactivator (tTA), an artificial transcription factor, are fused at the C-terminus of the GPCR, while the CTEV fragment is fused to human β-arrestin 2. To enhance the stability of the interaction between GPCR and β-arrestin, a short sequence from the C-terminus of the human arginine vasopressin receptor 2 (V2 tail) is inserted between the GPCR and NTEV. The V2 tail contains multiple GRK phosphorylation sites, which strengthen β-arrestin binding upon phosphorylation. The CTEV fragment carries the stabile point mutation S219P and is truncated at residue 221 to remove the autoinhibitory C-terminal tail. Meanwhile, β-arrestin 2 is truncated to lack the entire C-terminal tail (residues 383-410 deleted). This truncation confers robust stimulus-dependent receptor desensitization, thereby improving detection sensitivity compared with wild-type β-arrestin 2. The UAS reporter construct consists of upstream activating sequence (UAS) elements, a minimal CMV promoter, and a tTA-dependent luciferase reporter gene. Therefore, constructing Tango cells requires the co-transfection of the above three plasmids into host cells. Upon GPCR activation and β-arrestin recruitment, the TEV enzyme at the β-arrestin terminus cleaves tTA from the GPCR C-terminus. The released tTA initiates tTA-dependent luciferase transcription, and compound activity is ultimately determined by measuring luminescence intensity.
(§2) • 1) Tango cell line from was digested from the culture dish respectively. After cell counting, the cells were plated at a density of 10,000 cells per well with […] into a white opaque 96-well plate (add 60 µL D'Hanks to the surrounding wells), and incubated overnight (20 h) in a 5% CO2 incubator at 37°C. The cell density will reach approximately 90% the next day. • 2) After 20 h, 30 µL of serially diluted compound solution was added to each well. The control group was supplemented with 30 µL F12K complete medium. Each group had three replicate wells. • 3) Samples were collected after 20 h of drug treatment.
(§3) (All compounds were tested at a final concentration of 45 µM, with 9 serial dilutions at 5-fold intervals. 1 µM BAF-312 was used as the positive control for S1PR1, and 25 µM BAF-312 was used as the positive control for S1PR4.

In experiment [2] the target is T2, hS1P4 (Homo sapiens, UniProt O95977).
T2 construct: expressed in transfected cells; host or cells: CHO
T2 sequence (O95977 1-384): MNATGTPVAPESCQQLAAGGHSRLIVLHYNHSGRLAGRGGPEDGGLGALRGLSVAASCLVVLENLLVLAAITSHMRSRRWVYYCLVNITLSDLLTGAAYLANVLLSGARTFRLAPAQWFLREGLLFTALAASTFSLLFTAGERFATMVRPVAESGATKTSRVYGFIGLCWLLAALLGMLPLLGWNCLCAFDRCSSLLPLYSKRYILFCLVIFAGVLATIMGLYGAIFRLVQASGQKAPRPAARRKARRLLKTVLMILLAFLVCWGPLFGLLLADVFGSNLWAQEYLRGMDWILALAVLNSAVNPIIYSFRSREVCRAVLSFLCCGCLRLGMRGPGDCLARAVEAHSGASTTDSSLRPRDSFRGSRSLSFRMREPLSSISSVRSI
The experiment in a line: Tango β-arrestin recruitment luciferase assay, Tango-hS1P4-CHO. Format: cell-based. The settings on record: β-arrestin recruitment; 20 h drug treatment; top 45 µM, 9 serial 5-fold dilutions; positive control 25 µM BAF-312; read-out: Tango-hS1P4-CHO EC50.
Text: as §1, §2, §3
In general terms: Arrestin recruitment assays detect the binding of arrestin to an activated receptor.

Experiment [3] deals with SD rats. The experiment in a line: MIA-induced osteoarthritis (OA) model in rats. Format: in vivo. The protocol: SD rats, approximately 200 g, male. Purchased from Shanghai Bikai Animal Co., Ltd. Adaptive feeding was conducted for about 7 days.
3.1.1 Anesthesia: the rat was placed into the anesthesia box, the O2 gas source and the gas delivery pump were turned on, and the gas adjustment knob was rotated to set the ratio of O2 to isoflurane at 8:2. The anesthesia depth knob was adjusted: first the indicator was turned to 3 to induce deep anesthesia in the rat; during the subsequent surgical procedure, the indicator was adjusted to 1.5 to maintain anesthesia. The three-way valve was opened to deliver gas into both the anesthesia box and the rat anesthesia mask.
The syringe needle was inserted at a 45° angle to the plateau along the lateral side of the patellar ligament, as shown in the figure below. The Control group is injected with 50 µl of 0.9% sterile normal saline, while the other groups are injected with 50 µl of sterile normal saline containing 3 mg of MIA. After the procedure, the rat was removed, placed in a breeding cage, and irradiated with an incandescent lamp to help restore body temperature until the rat recovers from anesthesia.
The Control group was administered 5% DMSO + 35% PEG400 + 60% normal saline. The compounds were dissolved in a system consisting of 5% dimethyl sulfoxide (DMSO), 35% polyethylene glycol 400 (PEG 400), and 60% normal saline. The drug solutions were prepared on the evening one day before administration.
The rats were acclimated for 1 week and randomly divided into groups, with a total of 10 rats. The Control group was administered 5% DMSO + 35% PEG400 + 60% normal saline, while the other groups were given the test compounds dissolved in 5% DMSO + 35% PEG400 + 60% normal saline.
3.4.1. From Day 1 to Day 14 of the experiment, the rats were administered intragastrically once daily, with a gavage volume of 5 mL/kg. The Control group and Model group were given 5% DMSO + 35% PEG400 + 60% normal saline throughout the experiment, while the other groups were administered the corresponding drugs.
On Day 7 and Day14 of the experiment, behavioral and joint pain tests were performed on the rats. To minimize confounding factors, the tests were conducted 1 hour after administration at a fixed time, preventing variations in the rats' condition at different time points from affecting the experimental results. The rats were allowed to acclimate to the environment for 20 minutes before the start of the experiment. • (1) Observation of walking distance and rearing times within five minutes: the dimensions of the resin box were measured and a paper sheet of the corresponding size was prepared. 1 cm × 1 cm grids were drawn on the paper sheet. The paper sheet was sealed with a transparent tape to prevent damage from rat excrement. Then the paper sheet with 1 cm × 1 cm grids was placed into the transparent resin box, ensuring a flat bottom. A camera device was used to record the walking process and trajectory of the rat within 5 minutes, and the walking distance and rearing times of the rat were counted. • (2) Joint Pain Assessment: After fixing the rat and allowing it to calm down, its knee joint was gently bent. […] The knee joint pain severity in rats is reflected by the scores of leg withdrawal and vocalization. The joint pain assessment was performed every 5 seconds for a total of 5 times.
On Day 15 of the experiment, the rats were anesthetized, and blood was collected from their eyeballs. The serum was left to stand overnight at 4°C, centrifuged at 3600 rpm for 15 minutes at 4°C. The serum was aspirated and stored at -80°C. The rats were sacrificed by cervical dislocation. An incision was made along the knee joint on ice to remove fur, muscle, and other tissues. For each group, 5 rats were used; bilateral knee joints were dissected, and the color, roughness, and integrity of the femoral condyle surface were observed. The knee joint cartilage was then harvested and cryopreserved at -80°C. […]

Setting [4] is: DAY7, diclofenac sodium 2.5 mg/kg, vs Model group.

T1 sequence (P21453 whole entry): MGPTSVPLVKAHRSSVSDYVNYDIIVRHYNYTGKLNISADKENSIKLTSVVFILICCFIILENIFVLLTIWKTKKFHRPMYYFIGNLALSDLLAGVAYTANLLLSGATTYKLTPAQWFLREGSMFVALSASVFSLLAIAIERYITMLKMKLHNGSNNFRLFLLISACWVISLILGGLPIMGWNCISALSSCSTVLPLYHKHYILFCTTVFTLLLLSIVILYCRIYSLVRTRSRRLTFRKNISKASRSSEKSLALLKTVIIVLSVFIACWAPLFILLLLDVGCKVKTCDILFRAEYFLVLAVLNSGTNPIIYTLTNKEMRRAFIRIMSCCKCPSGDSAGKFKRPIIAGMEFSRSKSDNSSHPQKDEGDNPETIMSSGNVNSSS

Turning to `CCc1cc(/C(C)=N/OCc2ccc(-c3ccoc3)c(C)c2)ccc1CN1CC[C@H](C(=O)O)C1` [Compound 36, (S, E)-1-(2-ethyl-4-(1-(((4-(furan-3-yl)-3-methylbenzyl)oxy)imino)ethyl)benzyl)pyrrolidine-3-carboxylic acid], the figures for the EC50 in experiment [1] and in experiment [2] were 0.103 µM and 0.00167 µM, respectively.
In the same order, the values of `CCc1cc(/C(C)=N/OCc2ccc(C3CCCCC3)cc2)ccc1CN1CC(C(=O)O)C1` [Compound 3] are 0.578 µM and 2.16 µM.
On the same counts, the results for `CCc1cc(/C(C)=N/OCc2ccc(-c3ccc(F)cc3)c(C)c2)ccc1CN1CC[C@H](C(=O)O)C1` [Compound 34, (S, E)-1-(2-ethyl-4-(1-(((4'-fluoro-2-methyl-[1,1'-biphenyl]-4-yl)methoxy)imino)ethyl)benzyl)pyrrolidine-3-carboxylic acid] are 0.0869 µM and 0.00241 µM.
On the same counts, the results for `C/C(=N\OCc1ccc(C2CCCCC2)cc1)c1ccc(CN2CC(C(=O)O)C2)cc1` [Compound 1] are 0.699 µM and 2.97 µM.
For `CCc1cc(/C(C)=N/OCc2ccc(-c3ccccc3)c(F)c2)ccc1CN1CC[C@H](C(=O)O)C1` [Compound 35, (S, E)-1-(2-ethyl-4-(1-(((2-fluoro-[1,1'-biphenyl]-4-yl)methoxy)imino)ethyl)benzyl)pyrrolidine-3-carboxylic acid], the values for the EC50 in experiment [1] and in experiment [2] were 0.104 µM and 0.00379 µM, respectively.
With `C/C(=N\OCc1ccc(C2CCCCC2)c(C(F)(F)F)c1)c1ccc(CNC2CCCC(C(=O)O)C2)cc1` (stereo not shown) [Compound 9, (E)-3-((4-((1-((4-cyclohexyl-3-(trifluoromethyl)benzyl)oxy)imino)ethyl)benzyl)amino)cyclohexane-1-carboxylic acid], the EC50 came out at 0.455 µM in experiment [1] and 2.35 µM in experiment [2].
In the same order, the values of `C/C(=N\OCc1ccc(C2CCCCC2)c(C(F)(F)F)c1)c1ccc(CN2CCCC(C(=O)O)C2)cc1` (stereo not shown) [Compound 7] are 0.508 µM and 2.5 µM.
On the same counts, the results for `CCc1cc(/C(C)=N/OCc2ccc(-c3cncnc3)c(C)c2)ccc1CN1CCC(C(=O)O)CC1` [Compound 82, (E)-1-(2-ethyl-4-(1-(((3-methyl-4-(pyrimidin-5-yl)benzyl)oxy)imino)ethyl)benzyl)piperidine-4-carboxylic acid] are over 10 µM and 0.0427 ± 0.00228 µM.
As for `CCc1cc(/C(C)=N/OCc2ccc(-c3ccncc3)c(C)c2)ccc1CN1CC[C@H](C(=O)O)C1` [Compound 37, (S, E)-1-(2-ethyl-4-(1-(((3-methyl-4-(pyridin-4-yl)benzyl)oxy)imino)ethyl)benzyl)pyrrolidine-3-carboxylic acid], the EC50 in experiment [1] came out at 0.644 µM; in experiment [2], 0.0156 µM.
In the same order, the values of `CCc1cc(/C(C)=N/OCc2ccc(-c3cnn(C)c3)cc2)ccc1CN1CC[C@H](C(=O)O)C1` [Compound 55] are over 10 µM and 0.269 µM.
For `O=C(O)Cc1ccccc1Nc1c(Cl)cccc1Cl` [diclofenac sodium, reference compound], in experiment [3] (setting [4]), the five-minute walking distance entry was “increased significantly” and the pain index entry is “significantly decreased”. Also, the “gross observation of knee joint femoral condyle cartilage” value in experiment [3] (Day 15 dissection, 5 rats per group) was “knee cartilage in most rats became smooth and glossy; also recorded: cartilage of most rat knee joints became smooth and bright”. Moreover, the “serum IL-10 level” value in experiment [3] (Elisa, vs Model group) is “significantly increased”. The “OARSI score (severity of knee osteoarthritis)” value in experiment [3] (diclofenac sodium 2.5 mg/kg, vs Model group) was “significantly milder than that in the Model group”. For the same compound, in experiment [3] (vs Model group), the “Safranin O-Fast Green staining of knee joints” value is “enhanced Safranin O staining”.
For the compound `CCc1cc(/C(C)=N/OCc2ccc(C)c(C(F)(F)F)c2)ccc1CN1CC(C(=O)O)C1` [Compound 14, (E)-1-(2-ethyl-4-(1-((4-methyl-3-(trifluoromethyl)benzyl)oxy)imino)ethyl)azetidine-3-carboxylic acid], the 50% effective concentration (EC50) amounted to 5.99 µM in experiment [1] and 3.66 µM in experiment [2].

The term EC50 denotes the concentration needed to bring the measured effect to its halfway point.
